How the values of data set [1] were obtained:
This was accomplished by incubating the corresponding peptides in human serum at 37° C. The quantitative analysis of undigested polypeptides was performed using liquid chromatography coupled with tandem mass spectrometry (LC-MS/MS). Naturally occurring MCoTI-cyclotides present a very rigid structure, which makes them extremely stable to proteolytic degradation.
Human serum was spun down at 15,000 rpm for 10 min to separate the lipid components. Peptides (about 15 μg dissolved in 15 μl PBS) were mixed with 150 μl human serum and incubated in a 37° C. water bath. Aliquot samples (15 μL) were taken at different time points and serum protein were precipitated with about 70% MeCN at 4° C. for 10 min. The supernatant was separated, lyophilized, dissolved in 5% MeCN in water containing 0.1% formic acid, and analyzed by HPLC-MS/MS.

A further data set deals with T1, recombinant human MAS1 (Homo sapiens, UniProt P04201).
T1 construct: expressed in transfected cells; host or cells: CHO cells, stably transfected with pTEJ-8 vector
T1 sequence (P04201 1-325): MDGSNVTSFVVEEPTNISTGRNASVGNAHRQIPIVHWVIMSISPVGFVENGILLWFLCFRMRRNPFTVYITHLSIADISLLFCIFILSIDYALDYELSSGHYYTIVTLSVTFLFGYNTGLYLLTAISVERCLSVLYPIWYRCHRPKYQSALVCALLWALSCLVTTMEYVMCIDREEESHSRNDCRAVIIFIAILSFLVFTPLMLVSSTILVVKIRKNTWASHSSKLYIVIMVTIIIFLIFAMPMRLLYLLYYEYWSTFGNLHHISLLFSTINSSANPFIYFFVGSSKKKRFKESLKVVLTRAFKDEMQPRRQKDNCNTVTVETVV
Kind of data set: MAS1 activation: cell-based fluorescence assay of NO release in CHO cells stably transfected with MAS1. Particulars: for intracellular concentration of NO in the presence of MAS1 antagonist A779: A779 at 0.1 μM for 15 min before addition; for intracellular concentration of NO (fluorescence): no antagonist, 2 hours. The procedure: CHO cells stably transfected with pTEJ-8 vector expressing recombinant human MAS1 clone are grown to confluency. After washing, cells are incubated for a short time in 700 μL of supplemented Tyrode's salts containing 10 μM 2-phenyl-4,4,5,5-tetramethylimidazoline-1-oxyl-3-oxide (PTIO), 100 μM 2,3-diaminonaftalene (DAN), and 1 mM L-arginine. When using antagonist for competition assays, cells are exposed to MAS1 antagonist A779 (D-Ala^7-AT 1-7) at 0.1 μM for 15 min before addition of the cyclotides to be tested. Different concentrations of the cyclotides to be analyzed are added to the cell medium and the plates are agitated for 1 min before being placed into the incubator for 2 hours. After 2 hours, the cellular supernatants are transferred to opaque 96 well plates, and the amount of released NO is measured by fluorescence (λex=380 nm, λem=425 nm).

For a further data set, the system named is human lung cancer cells. The note with it: through activation of MAS1; cited from earlier work.
Data set [2] deals with human lung adenocarcinoma xenografts. The note with it: cited from earlier work.
Another data set has as its system cyclooxygenase-2 (COX-2). Particulars: xenograft tumor; cited from earlier work.
A further data set concerns cyclooxygenase 1 (COX-1). Particulars: same xenograft tumor; cited from earlier work.

Turning to `CC[C@H](C)[C@H](NC(=O)[C@H](Cc1ccc(O)cc1)NC(=O)[C@@H](NC(=O)[C@H](CCCNC(=N)N)NC(=O)[C@@H](N)CC(=O)O)C(C)C)C(=O)N[C@@H](Cc1c[nH]cn1)C(=O)N1CCC[C@H]1C(=O)O` [AT1-7, DRVYIHP], in data set [1], the “τ1/2 in human serum” value was 44 ± 3 min. On recombinant human MAS1 (MAS1-transfected CHO cells), the “intracellular concentration of NO in the presence of MAS1 antagonist A779” value was “A similar profile was obtained” and the “intracellular concentration of NO (fluorescence)” value was “increase the intracellular concentration of NO in a dose dependent manner”. In the data set on human lung cancer cells, the “serum-stimulated growth of human lung cancer cells” value is “reduce serum-stimulated growth of human lung cancer cells both in vitro and in vivo”. In data set [2], the tumor growth result is “inhibit tumor growth”. Also, the COX-2 activity result with cyclooxygenase-2 (COX-2) is “reduction in cyclooxygenase-2 (COX-2) activity”. Also, the COX-1 activity result in the data set on cyclooxygenase 1 (COX-1) is recorded as “no effect”.

“GGVCPKILQRCRRDSDCPGACICRGNGYCGSGXRVYIHE [MCo-AT1-7, MCoTI-I cyclotide with AT1-7-derived peptide (Asp1 to diaminopropionic acid, Pro7 to Glu) grafted onto loop 6 via two isopeptide bonds]”: in the data set with recombinant human MAS1 (MAS1-transfected CHO cells), the “MAS1 agonist activity (summary statement)” value is “potent MAS1 agonist, with similar activity to that of the peptide AT1-7”; the “intracellular concentration of NO in the presence of MAS1 antagonist A779” value is recorded as “no increase in the intracellular concentration of NO was detected”; the “intracellular concentration of NO (fluorescence)” value was “increase the intracellular concentration of NO in a dose dependent manner”. In addition, the “activity relative to that of peptide AT1-7” value with recombinant human MAS1 (at 10 nM, NO release assay) is on record as “about 90%”.

The values are drawn from patent publication US10988522B2, “Proteolically resistant cyclotides with angiotensin 1-7 like activity” (University of Southern California, priority 2016, dated 2021).
